Patent US20070078096A1, “Buffered drug formulations for transdermal electrotransport delivery” (priority 1997, published 2007)
In brackets after ≈: the same amount, converted by molar mass. Like-named read-outs stand apart in the source and are kept apart here. Residues, ends and D or L forms follow the SMILES beside them.

Tests used:
[1] = Solubility of dipeptides at their pI; type: physicochemical
Text: (§1) Table 1 lists conductivities and solubilities of selected dipeptides useful in the present invention, at their pI.

[2] = pKa, pI and charge distribution of buffers; conditions: for % salt: fraction of dipeptide carrying a net charge in aqueous solution at pH equal to pI
Text: At the pI, three species coexist.
In an electric field these negative species move in the opposite direction of their positive associated counterions.
Choice of the dipeptide buffer will be on a case-by-case basis depending on the drug compound and the desired level of pH control and conductivity of the formulation.

[3] = Conductivity of dipeptides at their pI; type: physicochemical
Text: as §1

[4] = pH stability of formulations with TMAB or SMS during electrotransport (Example 4); type: in vivo, hairless guinea pigs
Text: The effect of the zwitterionic buffer Gly-His and His-Glu on pH stability of formulations containing small molecular weight drug-like compounds during electrotransport to hairless guinea pigs was studied. Trimethylammonium bromide (TMAB) was used as the cationic model drug and sodium methanesulfate (SMS) was used as the model anionic drug.
The electrodes were connected to a DC power source which supplied a constant level of electric current of 0.100 mA/cm^2. The anodic electrode assembly comprised a skin-contacting gel containing the aqueous solution of His-Glu 66 mM or Gly-His 45 mM and TMAB at 50 mM and 3% HEC. This formulation was separated from the silver anode by a Sybron ion exchange membrane. A gel containing 0.15 M sodium chloride (which acted as a chloride source) was placed between the silver anode and the ion exchange membrane. The cathodic electrode assembly comprised a skin-contacting gel containing the aqueous solution of His-Glu 66 mM or Gly-His 45 mM and SMS 50 mM and 3% HEC. The cathodic gel reservoir was separated from the silver chloride cathode by a Nafion ion exchange membrane. A gel containing 0.1 5M sodium chloride was placed between the cathode and the ion exchange membrane. The ionic strength of the skin-contacting gels was 60 mM.
Experiments were performed in vivo in hairless guinea pigs. Two animals were used for each condition studied. The electrotransport systems were applied to and removed from the backs of the animals. The two reservoirs were generally spaced about 5 cm apart. The application site was wiped with 70% isopropyl alcohol wipes prior to system application. Donor reservoir gel pH was measured prior to application and after removal of the systems using a HORIBA compact pH meter (Cardy).

[5] = In vivo iontophoresis, pH control of anodic and cathodic buffer gels (Example 2); design: species or system hairless guinea pigs; Ionic strength (approx.): unit not given here; conditions: for Anodic pH after 5 h electrotransport / Cathodic pH after 5 h electrotransport: 0.1 mA/cm^2; for pH control of a cathodic electrotransport formulation: for at least 5 hours; for pH control of a cathodic electrotransport formulation / pH control of an anodic electrotransport formulation: dipeptides at their pI
Protocol: In vivo iontophoresis experiments were performed using custom built electrotransport systems. […] This formulation was separated from the anode electrode by a Sybron ion exchange membrane. […] The cathode-compartment comprised a skin-contacting gel containing the aqueous solution of the buffering agent at the indicated concentration and 3% HEC. This formulation was separated from the cathode electrode by a Nafion ion exchange membrane. […] The electrodes were connected to a DC power source which supplied a constant level of electric current of 0.1 mA/cm^2. Experiments were performed in vivo in hairless guinea pigs. Three animals were used for each condition studied. The electrotransport systems were applied to and removed from the flank of the animals. The two reservoirs were generally spaced about 5 cm apart. The application site was wiped with water prior to system application. pH of the gels was measured prior to application and after removal of the systems using a HORIBA compact pH […]).

[6] = cathodic gel, prior to application

NCCCC[C@H](NC(=O)[C@@H](N)CCC(=O)O)C(=O)O [Glu-Lys] (H-Glu-Lys-OH)
Solubility [1]: 1000 mM (≈ 275 mg/mL) | pI ([2]; Table 1): 6.00 | pI ([2]; Table 2): 6.00 | % salt [2]: 2% | Conductivity at 10^−2 Molar [3]: 6 μS/cm

C[C@H](NC(=O)[C@@H](N)Cc1cnc[nH]1)C(=O)O [His-Ala] (H-His-Ala-OH)
Solubility [1]: 500 mM (≈ 113 mg/mL) | pka A [2]: 2.48 | pI ([2]; Table 1): 6.95 | pI ([2]; Table 2): 6.95 | % salt [2]: 22% | Conductivity at 10^−2 Molar [3]: 60 μS/cm

N[C@@H](Cc1cnc[nH]1)C(=O)N[C@@H](CC(=O)O)C(=O)O [His-Asp] (H-His-Asp-OH)
Solubility [1]: 50 mM (≈ 13.5 mg/mL) | pI ([2]; Table 1): 5.22 | pI ([2]; Table 2): 5.22 | % salt [2]: 11% | Conductivity at 10^−2 Molar [3]: 28 μS/cm

N[C@@H](Cc1cnc[nH]1)C(=O)N[C@@H](CCC(=O)O)C(=O)O [His-Glu] (H-His-Glu-OH)
Solubility [1]: 400 mM (≈ 114 mg/mL) | Final pH ([4]; Anode, drug TMAB 50 mM): 5.3 | Initial pH ([4]; Anode, drug TMAB 50 mM): 5.1 | Final pH ([4]; Cathode, drug SMS 50 mM): 6.0 | Initial pH ([4]; Cathode, drug SMS 50 mM): 5.2 | pH control with TMAB or SMS ([4]; all experimental conditions tested (Table 7)): good pH control | pI [2]: 5.2 | pI ([2]; Table 1): 5.20 | pI ([2]; Table 2): 5.20 | species presenting a net charge (salt form) at the pI ([2]; at pI): about 15% | % salt [2]: 15% | pH after 24 h electrotransport ([5]; Anode, listed as His-Glu 100 mM): 5.5 | pH after 24 h electrotransport ([5]; Anode, listed as His-Glu 250 mM): 5.4 | pH after 24 h electrotransport ([5]; Cathode, listed as His-Glu 100 mM): 5.4 | pH after 24 h electrotransport ([5]; Cathode, listed as His-Glu 250 mM): 5.2 | Ionic strength (approx.) ([5]; Table 3, anodic buffer gel, listed as His-Glu 100 mM): ~0.015 | Ionic strength (approx.) ([5]; Table 3, anodic buffer gel, listed as His-Glu 250 mM): ~0.037 | Ionic strength (approx.) ([5]; Table 4, cathodic buffer gel, listed as His-Glu 100 mM): ~0.015 | Ionic strength (approx.) ([5]; Table 4, cathodic buffer gel, listed as His-Glu 250 mM): ~0.037 | Initial pH ([5]; Table 5, Anode, listed as His-Glu 100 mM): 5.1 | Initial pH ([5]; Table 5, Anode, listed as His-Glu 250 mM): 5.2 | Initial pH ([5]; Table 5, Cathode): 5.3 | Anodic pH after 5 h electrotransport ([5]; anodic gel): 5.2 | Initial pH ([5]; anodic gel, prior to application, listed as His-Glu 100 mM): 5.1 | Initial pH ([5]; anodic gel, prior to application, listed as His-Glu 250 mM): 5.2 | Cathodic pH after 5 h electrotransport ([5]; cathodic gel): 5.0 | Initial pH [5, 6]: 5.3 | pH control of electrotransport formulations ([5]; electrotransport experiments in animals, at their pI, for several hours): capable of assuring pH control | pH control of a cathodic electrotransport formulation [5]: capable of assuring pH control | pH control of an anodic electrotransport formulation ([5]; for several hours): capable of assuring pH control | pH control of anodic and cathodic electrotransport formulations ([5]; for up to 24 hours, at their pI): capable of assuring pH control | Conductivity at 10^−2 Molar [3]: 40 μS/cm

N[C@@H](Cc1cnc[nH]1)C(=O)NCC(=O)O [His-Gly] (H-His-Gly-OH)
Solubility [1]: 1000 mM (≈ 212 mg/mL) | pka A [2]: 2.41 | pI ([2]; Table 1): 6.90 | pI ([2]; Table 2): 6.90 | % salt [2]: 16% | Conductivity at 10^−2 Molar [3]: 40 μS/cm

NCCCC[C@H](N)C(=O)N[C@@H](CC(=O)O)C(=O)O [Lys-Asp] (H-Lys-Asp-OH)
Solubility [1]: 1000 mM (≈ 261 mg/mL) | pI ([2]; Table 1): 6.08 | pI ([2]; Table 2): 6.08 | % salt [2]: 2% | Conductivity at 10^−2 Molar [3]: 6 μS/cm

NCCCC[C@H](N)C(=O)N[C@@H](CCC(=O)O)C(=O)O [Lys-Glu] (H-Lys-Glu-OH)
Solubility [1]: 500 mM (≈ 138 mg/mL) | pI ([2]; Table 1): 6.06 | pI ([2]; Table 2): 6.06 | % salt [2]: 3% | Conductivity at 10^−2 Molar [3]: 8 μS/cm

O=S(=O)(O)CCCN1CCOCC1 [MOPS, 3-[N-morpholino]propanesulphonic acid, reference compound]
pI [2]: 4 | buffering capacity at its pI ([2]; at pI): does not present any buffering capacity | conductivity of solutions at its pI ([2]; at pI): non-conductive | net charge at pH 7 ([2]; pH 7): −0.5 | Ionic strength (approx.) ([5]; Table 3, anodic buffer gel): ~0.01 | Ionic strength (approx.) ([5]; Table 4, cathodic buffer gel): ~0.01 | Anodic pH after 5 h electrotransport ([5]; anodic gel): 4.1 | Initial pH ([5]; anodic gel, prior to application): 7.0 | Cathodic pH after 5 h electrotransport ([5]; cathodic gel): 5.4 | Initial pH [5, 6]: 7.0 | pH control of a cathodic electrotransport formulation [5]: lack of stability | pH control of an anodic electrotransport formulation ([5]; for several hours): lack of stability

CC(C)[C@H](N)C(=O)N[C@@H](Cc1cnc[nH]1)C(=O)O [Val-His] (H-Val-His-OH)
Solubility [1]: 200 mM (≈ 50.9 mg/mL) | pka A [2]: 3.09 | pI ([2]; Table 1): 7.38 | pI ([2]; Table 2): 7.38 | % salt [2]: 34% | Conductivity at 10^−2 Molar [3]: 94 μS/cm

O=P(O)(O)O [phosphate, phosphoric acid, reference compound]
Ionic strength (approx.) ([5]; Table 3, anodic buffer gel, listed as Phosphate 10 mM): ~0.015 | Ionic strength (approx.) ([5]; Table 3, anodic buffer gel, listed as Phosphate 33 mM): ~0.05 | Ionic strength (approx.) ([5]; Table 3, anodic buffer gel, listed as Phosphate 100 mM): ~0.15 | Ionic strength (approx.) ([5]; Table 4, cathodic buffer gel): ~0.015 | Anodic pH after 5 h electrotransport ([5]; anodic gel, listed as Phosphate 33 mM): 3.3 | Anodic pH after 5 h electrotransport ([5]; anodic gel, listed as Phosphate 100 mM): 6.5 | Initial pH ([5]; anodic gel, prior to application, listed as Phosphate 10 mM): 6.9 | Initial pH ([5]; anodic gel, prior to application, listed as Phosphate 33 mM): 6.9 | Initial pH ([5]; anodic gel, prior to application, listed as Phosphate 100 mM): 6.8 | Cathodic pH after 5 h electrotransport ([5]; cathodic gel): 4.2 | Initial pH [5, 6]: 6.9 | pH control of a cathodic electrotransport formulation [5]: lack of stability | pH control of an anodic electrotransport formulation ([5]; for several hours): lack of stability
